Key:
Assay in all cases: KINOMEscan competition binding
[1] = molecular target: DCLK3 (human) (UniProt Q9C098); conditions: compound 10.0 µM
[2] = molecular target: NTRK3 (human) (UniProt Q16288); conditions: compound 10.0 µM
[3] = molecular target: NEK6 (human) (UniProt Q9HC98); conditions: compound 10.0 µM
[4] = molecular target: CDK7 (human) (UniProt P50613); conditions: compound 10.0 µM
[5] = molecular target: FGR (human) (UniProt P09769); conditions: compound 10.0 µM
[6] = molecular target: EPHA5 (human) (UniProt P54756); conditions: compound 10.0 µM
[7] = molecular target: MYO3A (human) (UniProt Q8NEV4); conditions: compound 10.0 µM
[8] = molecular target: TRPM6 (human) (UniProt Q9BX84); conditions: compound 10.0 µM
[9] = molecular target: PIM2 (human) (UniProt Q9P1W9); conditions: compound 10.0 µM
[10] = molecular target: TBK1 (human) (UniProt Q9UHD2); conditions: compound 10.0 µM
[11] = molecular target: TAOK3 (human) (UniProt Q9H2K8); conditions: compound 10.0 µM
[12] = molecular target: MKNK1 (human) (UniProt Q9BUB5); conditions: compound 10.0 µM
[13] = molecular target: MYO3B (human) (UniProt Q8WXR4); conditions: compound 10.0 µM
[14] = molecular target: STK25 (human) (UniProt O00506); conditions: compound 10.0 µM
[15] = molecular target: PRKG2 (human) (UniProt Q13237); conditions: compound 10.0 µM
[16] = molecular target: TXK (human) (UniProt P42681); conditions: compound 10.0 µM
[17] = molecular target: CDC42BPA (human) (UniProt Q5VT25); conditions: compound 10.0 µM
[18] = molecular target: JAK1 JH1 catalytic (human) (UniProt P23458); conditions: compound 10.0 µM
[19] = molecular target: PHKG2 (human) (UniProt P15735); conditions: compound 10.0 µM
[20] = molecular target: RPS6KB1 (human) (UniProt P23443); conditions: compound 10.0 µM
[21] = molecular target: MAP4K5 (human) (UniProt Q9Y4K4); conditions: compound 10.0 µM
[22] = molecular target: CDKL3 (human) (UniProt Q8IVW4); conditions: compound 10.0 µM
[23] = molecular target: MET (human) (UniProt P08581); conditions: compound 10.0 µM
[24] = molecular target: FLT4 (human) (UniProt P35916); conditions: compound 10.0 µM
[25] = molecular target: ERBB3 (human) (UniProt P21860); conditions: compound 10.0 µM
[26] = molecular target: GRK1 (human) (UniProt Q15835); conditions: compound 10.0 µM
[27] = molecular target: DAPK2 (human) (UniProt Q9UIK4); conditions: compound 10.0 µM
[28] = molecular target: GSK3B (human) (UniProt P49841); conditions: compound 10.0 µM
[29] = molecular target: ITK (human) (UniProt Q08881); conditions: compound 10.0 µM
[30] = system: MET (human), P08581 [M1250T]; conditions: compound 10.0 µM
[31] = molecular target: RIOK3 (human) (UniProt O14730); conditions: compound 10.0 µM
[32] = molecular target: HIPK4 (human) (UniProt Q8NE63); conditions: compound 10.0 µM
[33] = molecular target: KIT (human) (UniProt P10721)
[34] = molecular target: PRKCD (human) (UniProt Q05655); conditions: compound 10.0 µM
[35] = molecular target: MAPK15 (human) (UniProt Q8TD08); conditions: compound 10.0 µM
[36] = molecular target: RIOK2 (human) (UniProt Q9BVS4); conditions: compound 10.0 µM
[37] = molecular target: ABL2 (human) (UniProt P42684); conditions: compound 10.0 µM
[38] = system: EGFR (human), P00533 [G719S]; conditions: compound 10.0 µM
[39] = molecular target: PHKG1 (human) (UniProt Q16816); conditions: compound 10.0 µM
[40] = molecular target: STK32C (human) (UniProt Q86UX6); conditions: compound 10.0 µM
[41] = molecular target: NEK11 (human) (UniProt Q8NG66); conditions: compound 10.0 µM
[42] = molecular target: FGFR4 (human) (UniProt P22455); conditions: compound 10.0 µM
[43] = system: EGFR (human), P00533 [L858R]; conditions: compound 10.0 µM

Sequence of KIT (human) (P10721 whole entry, looked up): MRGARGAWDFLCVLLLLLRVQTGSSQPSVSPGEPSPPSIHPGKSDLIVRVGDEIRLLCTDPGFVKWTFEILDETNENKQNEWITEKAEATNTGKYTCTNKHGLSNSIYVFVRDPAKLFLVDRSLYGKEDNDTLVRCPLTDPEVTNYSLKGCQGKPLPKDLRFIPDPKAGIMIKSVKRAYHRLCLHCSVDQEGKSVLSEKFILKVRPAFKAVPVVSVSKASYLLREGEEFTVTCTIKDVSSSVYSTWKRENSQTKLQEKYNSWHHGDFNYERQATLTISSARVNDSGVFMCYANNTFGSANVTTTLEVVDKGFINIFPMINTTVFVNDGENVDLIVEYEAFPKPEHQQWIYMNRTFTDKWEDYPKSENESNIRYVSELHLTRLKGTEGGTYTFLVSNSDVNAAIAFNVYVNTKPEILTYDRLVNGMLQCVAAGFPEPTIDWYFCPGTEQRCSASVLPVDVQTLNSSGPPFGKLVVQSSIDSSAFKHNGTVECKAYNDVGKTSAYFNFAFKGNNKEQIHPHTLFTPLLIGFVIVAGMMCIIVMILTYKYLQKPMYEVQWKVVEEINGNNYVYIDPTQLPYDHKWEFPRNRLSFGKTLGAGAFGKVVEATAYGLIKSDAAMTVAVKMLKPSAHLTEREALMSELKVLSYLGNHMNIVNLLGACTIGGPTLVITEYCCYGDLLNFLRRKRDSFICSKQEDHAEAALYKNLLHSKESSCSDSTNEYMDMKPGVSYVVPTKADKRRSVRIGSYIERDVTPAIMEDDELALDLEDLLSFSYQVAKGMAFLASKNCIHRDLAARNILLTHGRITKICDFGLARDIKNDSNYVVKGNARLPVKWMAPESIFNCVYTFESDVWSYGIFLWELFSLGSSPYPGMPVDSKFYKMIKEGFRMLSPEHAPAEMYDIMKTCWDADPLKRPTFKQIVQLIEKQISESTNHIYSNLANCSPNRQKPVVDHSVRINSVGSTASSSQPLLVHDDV
Sequence of MYO3B (human) (Q8WXR4 whole entry, looked up): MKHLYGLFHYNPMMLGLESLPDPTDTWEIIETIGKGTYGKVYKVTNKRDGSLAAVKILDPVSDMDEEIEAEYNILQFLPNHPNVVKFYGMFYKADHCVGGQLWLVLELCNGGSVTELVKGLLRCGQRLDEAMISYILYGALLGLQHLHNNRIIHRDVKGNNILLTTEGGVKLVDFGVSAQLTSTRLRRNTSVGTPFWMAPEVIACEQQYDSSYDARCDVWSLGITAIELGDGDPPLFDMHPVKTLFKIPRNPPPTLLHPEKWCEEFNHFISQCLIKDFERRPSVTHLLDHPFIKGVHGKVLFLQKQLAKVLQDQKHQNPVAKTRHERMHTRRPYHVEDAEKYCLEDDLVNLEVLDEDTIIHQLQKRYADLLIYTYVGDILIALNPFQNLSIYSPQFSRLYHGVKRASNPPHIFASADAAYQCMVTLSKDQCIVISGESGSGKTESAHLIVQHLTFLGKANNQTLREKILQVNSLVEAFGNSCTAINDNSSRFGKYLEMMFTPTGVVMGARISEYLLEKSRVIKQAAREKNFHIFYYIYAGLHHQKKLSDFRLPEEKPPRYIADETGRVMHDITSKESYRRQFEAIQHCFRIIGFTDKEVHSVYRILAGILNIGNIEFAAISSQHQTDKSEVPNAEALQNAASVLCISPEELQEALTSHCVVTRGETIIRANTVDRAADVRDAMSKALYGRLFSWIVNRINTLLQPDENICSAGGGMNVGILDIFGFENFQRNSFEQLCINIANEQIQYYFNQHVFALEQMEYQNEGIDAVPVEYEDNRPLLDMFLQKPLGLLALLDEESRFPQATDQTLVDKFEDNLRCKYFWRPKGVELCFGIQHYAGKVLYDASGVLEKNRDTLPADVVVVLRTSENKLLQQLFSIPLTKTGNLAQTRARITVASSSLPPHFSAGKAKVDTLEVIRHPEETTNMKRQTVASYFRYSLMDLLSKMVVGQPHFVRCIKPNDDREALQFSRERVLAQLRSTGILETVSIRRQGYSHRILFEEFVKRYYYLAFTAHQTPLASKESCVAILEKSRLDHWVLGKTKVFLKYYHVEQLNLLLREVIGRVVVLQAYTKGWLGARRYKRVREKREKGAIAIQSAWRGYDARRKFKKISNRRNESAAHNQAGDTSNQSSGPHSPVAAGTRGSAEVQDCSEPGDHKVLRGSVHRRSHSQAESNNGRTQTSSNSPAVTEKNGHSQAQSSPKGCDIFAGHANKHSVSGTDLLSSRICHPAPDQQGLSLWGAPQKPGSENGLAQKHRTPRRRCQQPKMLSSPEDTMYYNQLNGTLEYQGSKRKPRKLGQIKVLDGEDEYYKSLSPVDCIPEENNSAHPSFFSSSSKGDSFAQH
Sequence of NEK11 (human) (Q8NG66 whole entry, looked up): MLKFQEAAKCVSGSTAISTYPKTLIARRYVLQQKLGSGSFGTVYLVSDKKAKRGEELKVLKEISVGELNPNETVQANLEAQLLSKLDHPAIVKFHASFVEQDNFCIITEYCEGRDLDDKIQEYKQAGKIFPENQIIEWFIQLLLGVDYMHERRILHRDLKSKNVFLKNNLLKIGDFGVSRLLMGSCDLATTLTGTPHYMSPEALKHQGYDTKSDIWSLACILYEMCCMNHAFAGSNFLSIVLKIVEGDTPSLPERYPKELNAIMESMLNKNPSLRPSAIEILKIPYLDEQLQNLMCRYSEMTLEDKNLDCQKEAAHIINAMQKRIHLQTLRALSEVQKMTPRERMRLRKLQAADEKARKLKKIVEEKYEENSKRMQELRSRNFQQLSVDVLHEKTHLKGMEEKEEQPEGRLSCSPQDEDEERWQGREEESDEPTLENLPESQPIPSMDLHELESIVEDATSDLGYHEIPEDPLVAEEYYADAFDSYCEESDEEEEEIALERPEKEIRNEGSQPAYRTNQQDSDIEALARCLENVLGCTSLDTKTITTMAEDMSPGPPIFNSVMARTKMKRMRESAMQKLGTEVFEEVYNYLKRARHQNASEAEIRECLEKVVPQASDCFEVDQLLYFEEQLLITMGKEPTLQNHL
Sequence of NTRK3 (human) (Q16288 whole entry, looked up): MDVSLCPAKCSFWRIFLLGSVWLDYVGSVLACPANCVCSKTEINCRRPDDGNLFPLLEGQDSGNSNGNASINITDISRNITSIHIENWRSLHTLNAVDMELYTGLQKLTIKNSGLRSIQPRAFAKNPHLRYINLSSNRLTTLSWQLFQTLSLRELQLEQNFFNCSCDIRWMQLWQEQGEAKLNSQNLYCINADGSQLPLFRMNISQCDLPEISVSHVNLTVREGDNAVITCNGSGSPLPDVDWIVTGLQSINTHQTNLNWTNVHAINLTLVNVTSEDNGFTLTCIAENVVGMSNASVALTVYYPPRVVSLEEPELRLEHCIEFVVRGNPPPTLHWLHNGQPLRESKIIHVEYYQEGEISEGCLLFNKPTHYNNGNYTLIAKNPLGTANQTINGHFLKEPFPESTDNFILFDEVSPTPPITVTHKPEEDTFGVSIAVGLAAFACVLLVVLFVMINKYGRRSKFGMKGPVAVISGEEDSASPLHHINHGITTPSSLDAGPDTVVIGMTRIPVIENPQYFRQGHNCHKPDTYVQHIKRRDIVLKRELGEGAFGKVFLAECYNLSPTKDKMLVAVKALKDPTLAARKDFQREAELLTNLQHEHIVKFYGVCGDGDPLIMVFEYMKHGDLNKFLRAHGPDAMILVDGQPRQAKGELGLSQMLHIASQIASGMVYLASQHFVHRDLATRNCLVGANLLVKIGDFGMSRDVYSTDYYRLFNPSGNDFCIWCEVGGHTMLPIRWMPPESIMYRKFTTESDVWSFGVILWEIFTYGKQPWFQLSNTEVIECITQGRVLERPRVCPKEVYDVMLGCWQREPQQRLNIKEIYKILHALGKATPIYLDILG
Sequence of STK25 (human) (O00506 whole entry, looked up): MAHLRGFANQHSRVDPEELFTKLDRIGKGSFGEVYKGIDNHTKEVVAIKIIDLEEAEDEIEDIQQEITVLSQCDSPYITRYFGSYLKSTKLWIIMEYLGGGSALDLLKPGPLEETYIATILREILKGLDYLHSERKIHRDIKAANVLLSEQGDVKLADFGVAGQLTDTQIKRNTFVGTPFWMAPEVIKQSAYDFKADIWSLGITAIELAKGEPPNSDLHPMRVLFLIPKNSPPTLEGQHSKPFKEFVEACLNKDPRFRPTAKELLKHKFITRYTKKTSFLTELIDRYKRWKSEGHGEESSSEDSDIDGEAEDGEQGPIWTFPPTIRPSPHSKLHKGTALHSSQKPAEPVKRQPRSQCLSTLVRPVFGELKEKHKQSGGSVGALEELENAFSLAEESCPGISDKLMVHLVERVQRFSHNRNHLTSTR
Sequence of MKNK1 (human) (Q9BUB5 whole entry, looked up): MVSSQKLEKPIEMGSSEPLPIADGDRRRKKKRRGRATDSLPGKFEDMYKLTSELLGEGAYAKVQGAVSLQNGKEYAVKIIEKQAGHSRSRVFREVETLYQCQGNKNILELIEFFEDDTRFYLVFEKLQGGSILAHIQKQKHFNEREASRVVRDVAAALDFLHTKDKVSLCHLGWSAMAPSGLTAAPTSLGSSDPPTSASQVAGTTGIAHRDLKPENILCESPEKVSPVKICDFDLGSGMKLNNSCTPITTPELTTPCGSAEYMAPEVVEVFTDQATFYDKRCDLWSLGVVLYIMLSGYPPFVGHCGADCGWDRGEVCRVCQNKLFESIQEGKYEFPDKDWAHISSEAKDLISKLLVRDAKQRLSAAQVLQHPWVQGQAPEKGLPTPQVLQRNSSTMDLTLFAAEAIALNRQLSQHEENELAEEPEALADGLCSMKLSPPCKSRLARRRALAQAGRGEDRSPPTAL
Sequence of PIM2 (human) (Q9P1W9 whole entry, looked up): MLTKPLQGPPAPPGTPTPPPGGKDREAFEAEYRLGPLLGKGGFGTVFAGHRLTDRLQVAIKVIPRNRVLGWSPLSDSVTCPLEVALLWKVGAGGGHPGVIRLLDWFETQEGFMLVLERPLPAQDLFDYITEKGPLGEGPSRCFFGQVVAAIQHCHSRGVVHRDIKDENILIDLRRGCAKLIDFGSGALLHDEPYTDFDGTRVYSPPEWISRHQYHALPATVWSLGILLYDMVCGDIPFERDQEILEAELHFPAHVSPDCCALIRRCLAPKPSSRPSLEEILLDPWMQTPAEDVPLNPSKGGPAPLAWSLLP

Cc1ccc(NC(=O)c2ccc(NC(=O)/C=C/CN(C)C)cc2)cc1Nc1nccc(-c2cccnc2)n1
kinase still bound, per cent of control [1]: 100%
kinase still bound, per cent of control [2]: 82%
kinase still bound, per cent of control [3]: 44%
kinase still bound, per cent of control [4]: 68%
kinase still bound, per cent of control [5]: 80%
kinase still bound, per cent of control [6]: 97%
kinase still bound, per cent of control [7]: 100%
kinase still bound, per cent of control [8]: 52%
kinase still bound, per cent of control [9]: 100%
kinase still bound, per cent of control [10]: 64%
kinase still bound, per cent of control [11]: 19%
kinase still bound, per cent of control [12]: 88%
kinase still bound, per cent of control [13]: 100%
kinase still bound, per cent of control [14]: 100%
kinase still bound, per cent of control [15]: 74%
kinase still bound, per cent of control [16]: 94%
kinase still bound, per cent of control [17]: 83%
kinase still bound, per cent of control [18]: 100%
kinase still bound, per cent of control [19]: 86%
kinase still bound, per cent of control [20]: 100%
kinase still bound, per cent of control [21]: 93%
kinase still bound, per cent of control [22]: 100%
kinase still bound, per cent of control [23]: 100%
kinase still bound, per cent of control [24]: 88%
kinase still bound, per cent of control [25]: 100%
kinase still bound, per cent of control [26]: 100%
kinase still bound, per cent of control [27]: 82%
kinase still bound, per cent of control [28]: 87%
kinase still bound, per cent of control [29]: 100%
kinase still bound, per cent of control [30]: 100%
kinase still bound, per cent of control [31]: 47%
kinase still bound, per cent of control [32]: 18%
Kd [33]: 30 nM
kinase still bound, per cent of control ([33]; compound 10.0 µM): 0%
kinase still bound, per cent of control [34]: 96%
kinase still bound, per cent of control [35]: 100%
kinase still bound, per cent of control [36]: 3.2%
kinase still bound, per cent of control [37]: 44%
kinase still bound, per cent of control [38]: 61%
kinase still bound, per cent of control [39]: 87%
kinase still bound, per cent of control [40]: 80%
kinase still bound, per cent of control [41]: 78%
kinase still bound, per cent of control [42]: 100%
kinase still bound, per cent of control [43]: 57%
